{
  "source": "patent US5441887A",
  "about": "“Rapid degradation of halogenated hydrocarbons by soluble methane monooxygenase” (Regents of the University of Minnesota, priority 1994, dated 1995)",
  "key": {"Mt OB3b": {"test_system": "Mt OB3b", "assay": "TCE oxidation by Mt OB3b grown by conventional methods (shake flask)", "format": "cell-based, Methylosinus trichosporium OB3b", "conditions": "initial TCE concentrations of one ppm or higher"}, "methanotrophic bacteria": {"test_system": "methanotrophic bacteria", "conditions": "optimal conditions, prior reports; cited from earlier work"}, "[1]": {"test_system": "methane-utilizing mixed culture", "conditions": "Fogel et al.; cited from earlier work"}, "[2]": {"test_system": "Methylosinus trichosporium OB3b", "assay": "No-headspace (single phase) assay of TCE degradation by continuously cultured Mt OB3b", "format": "cell-based", "conditions": "for Rates: 0% methane, 10 min-15 min; for micromoles TCE removed · hr^-1 · g dry cells^-1: cells cultured with methane 45 ml/min, air 135 ml/min; for Micromoles TCE removed: culture 0.64 g cells/l", "description": "Each culture of Mt OB3b was added to 1.8 ml serum bottle prewarmed to 30° C. and sealed with an 11 mm teflon-lined rubber septa. For comparisons requiring similar initial dissolved oxygen levels, anaerobic make-up media (usually 0.6 ml) was added to the bottles first and then the bottles were sealed. Air-saturated 30° C. Higgins media prepared as in Example I was added via gas-tight syringe (1.0 ml), while 1 atm pressure was maintained by allowing air to bleed through a 25 gauge needle. Finally, culture was added (concentrated to give desired density) while remaining headspace-was bled out through the 25 gauge needle. TCE was added with a syringe at the bottom of the sealed bottle, with a syringe at top of the bottle removing equivalent volume of culture. The assay time course was started with TCE (substrate) addition. Incubation was performed at 30° C. with agitation at 200 rpm on a platform shaker.\nAssays were terminated by extraction at desired time points. The liquid-liquid extraction technique used 0.6 ml of pentane containing 1,2-dibromoethane as an internal standard added via gas-tight syringe to inverted assay bottle, while a second syringe with a needle below first needle level collected displaced solution. Partitioning was brought to equilibrium by centrifugation of bottles at 5000 rpm for 10 min. The organic layer was removed by gas-tight syringe and placed in a 1 ml serum bottle for chromatographic analysis. In some cases, dilution of sample or split injection was necessary. Electron-capture detection was preferred. The following gas chromatography operating parameters were used:\nThe following Tests 1, 2 and 3 were conducted according to the no-headspaceassay procedure described generally above. […]\nIn prewarmed (30° C.) 120 ml serum bottles, 1 ml of Mt OB3b cell suspension grown in a chemostat (A600 =1.460) were mixed with 9 mls of 30° C. Higgins media prepared as in Example I. One bottle was prepared by adding \"spent\" media from the chemostat (decant media after pelleting cells with centrifugation--10,000 rpm for 10 minutes) rather than fresh Higgins media. The bottles were sealed with 20 mm teflon-lined rubber septa, evacuated and refilled with air (0% methane). One bottle was heat-killed and used as a control.\n1.76 ml of Mt OB3b cell suspension was added to sealed 1.8 ml serum bottles (25 gauge needle used to equilibrate pressure). 45 μl of 4 mM TCE stock were added to start the assay. Bottles were incubated at 30° C. with agitation on a shaker bath. Bottles were sacrificed at 2.5, 5.0, 10.0, 15.0 and 20.0 mins by displacing 0.6 ml aqueous solution with pentane containing 1 ppm 1,2-dibromoethane as an internal standard. Analysis was performed on a HP 5790A GC using ECD."}, "[3]": {"test_system": "Methylosinus trichosporium OB3b", "assay": "Two-phase headspace assay of TCE degradation by continuously cultured Mt OB3b", "format": "cell-based", "description": "Each culture of Mt OB3b was added in 2 ml quantities to 10 ml serum bottles. Bottles were sealed with 20 mm teflon-lined rubber septa. TCE was added to start the assay. Headspace accounted for 80% of total volume within bottles, but TCE concentration was added based on 2 ml aqueous phase. TCE resided principally in the headspace. All bottles were inverted in order to prevent possible TCE loss by trapping the compound in the headspace between the liquid phase and glass. Samples were incubated inverted at 30° C. with agitation (200 rpm on a platform shaker).\nHeadspace incubations were analyzed by direct injection of headspace into a gas chromatograph. This method may be performed without sacrificing a sample. It is important to prepare sound calibration curves for quantitation. The best method for external standardization is to prepare samples as if running an assay and heat-killing at 80° C. for 10 mins prior to TCE addition. Samples were incubated for 30 mins under test conditions to allow adequate time for TCE to partition among the numerous phases (air, water, cell material, and the like). Headspace samples were injected into a gas chromatograph using either FID or ECD. Numerous TCE concentrations were used to obtain a sound standardization curve.\nHeadspace assays of TCE degradation were conducted by adding bacterial cells from the continuous culture described in Example II or cells diluted with spent Higgins medium (2 mls) into assay vials (10 ml vials).\nRates were calculated from peak heights of recorder tracings from a gas chromatograph equipped with an electron capture detector."}},
  "data": [
    {"compound": "ClC=C(Cl)Cl", "note": "[TCE, 1,1,2-trichloroethene]", "values": [
      {"measurement": "Removal at which oxidation of TCE ceased", "setting": "Mt OB3b", "result": "about 50%"},
      {"measurement": "Rates of TCE degradation reported", "setting": "methanotrophic bacteria", "result": "exceed 100 μmoles per hour per gram of cells"},
      {"measurement": "Rate of TCE degradation", "setting": "[1]", "result": "approximately 2.5 μmoles per hour per gram of cells"},
      {"measurement": "Rate of TCE-utilization (no headspace assay)", "setting": "[2]; Test 1, culture turbidity A600 1.310", "result": 336, "unit": "μmoles·hr^-1·g cells^-1"},
      {"measurement": "Rate of TCE-utilization (no headspace assay)", "setting": "[2]; Test 2, culture turbidity A600 1.410", "result": 1070, "unit": "μmoles·hr^-1·g cells^-1"},
      {"measurement": "Rate of TCE-utilization (no headspace assay)", "setting": "[2]; Test 3, culture turbidity A600 1.460", "result": 2400, "unit": "μmoles·hr^-1·g cells^-1"},
      {"measurement": "Rate when most rapid oxidation of TCE occurred", "setting": "[2]; Test 3, times of most rapid oxidation", "result": "approximately 3500 μmoles/h^-1.g cells^-1"},
      {"measurement": "Rates", "setting": "[2]; Test 3 Run 2, 1/10 dilution in Higgins media", "result": 3200, "unit": "μmoles·h^-1·g cells^-1"},
      {"measurement": "Rates", "setting": "[2]; Test 3 Run 3, 1/10 dilution in spent Higgins media from chemostat", "result": 3960, "unit": "μmoles·h^-1·g cells^-1"},
      {"measurement": "micromoles TCE removed · hr^-1 · g dry cells^-1", "setting": "[2]; concentration of TCE 10 μM", "result": "829 micromoles TCE removed·hr^-1·g"},
      {"measurement": "micromoles TCE removed · hr^-1 · g dry cells^-1", "setting": "[2]; concentration of TCE 25 μM", "result": "1104 micromoles TCE removed·hr^-1·g"},
      {"measurement": "micromoles TCE removed · hr^-1 · g dry cells^-1", "setting": "[2]; concentration of TCE 50 μM", "result": "1194 micromoles TCE removed·hr^-1·g"},
      {"measurement": "Micromoles TCE removed", "setting": "[2]; concentration of TCE 40 μm, 5-10 min.", "result": 2.96, "unit": "µmol/min"},
      {"measurement": "Micromoles TCE removed", "setting": "[2]; concentration of TCE 80 μm, 5-10 min.", "result": 5.69, "unit": "µmol/min"},
      {"measurement": "Micromoles TCE removed", "setting": "[2]; concentration of TCE 80 μm, 10-15 min.", "result": 3.03, "unit": "µmol/min"},
      {"measurement": "Micromoles TCE removed", "setting": "[2]; concentration of TCE 320 μm, 5-10 min.", "result": 15.54, "unit": "µmol/min"},
      {"measurement": "Micromoles TCE removed", "setting": "[2]; concentration of TCE 320 μm, 10-15 min.", "result": 10.2, "unit": "µmol/min"},
      {"measurement": "Micromoles TCE removed", "setting": "[2]; concentration of TCE 640 μm, 10-25 min.", "result": 10.48, "unit": "µmol/min"},
      {"measurement": "Km", "setting": "[2]; concluded from Table VIII and other experiments, read-out: Ks for TCE oxidation", "result": "~5", "unit": "µM"},
      {"measurement": "Rate of TCE oxidation", "setting": "[2]; methane added 5% saturation, cell density approx. 0.16 g/l, nominal initial TCE 80 μM", "result": 3350, "unit": "μmoles·hr^-1·g cells^-1"},
      {"measurement": "Rate of TCE oxidation", "setting": "[2]; methane added 10% saturation, cell density approx. 0.16 g/l, nominal initial TCE 80 μM", "result": 3000, "unit": "μmoles·hr^-1·g cells^-1"},
      {"measurement": "Rate of TCE oxidation", "setting": "[2]; methane added 20% saturation, cell density approx. 0.16 g/l, nominal initial TCE 80 μM", "result": 875, "unit": "μmoles·hr^-1·g cells^-1"},
      {"measurement": "Rate of TCE oxidation", "setting": "[2]; methane added 50% saturation, cell density approx. 0.16 g/l, nominal initial TCE 80 μM", "result": 110, "unit": "μmoles·hr^-1·g cells^-1"},
      {"measurement": "Rate of TCE oxidation", "setting": "[2]; methane added: none, cell density approx. 0.16 g/l, nominal initial TCE 80 μM", "result": 660, "unit": "μmoles·hr^-1·g cells^-1"},
      {"measurement": "Rate of TCE oxidation", "setting": "[2]; some cell batches, without any methane present", "result": "approximately 4000 micro-moles.hr^-1.g cells^-1"},
      {"measurement": "Rate at which cells are believed able to oxidize TCE", "setting": "[2]; under optimal conditions, belief, extrapolated", "result": "10,000 μmoles.h^-1.g cells^-1"},
      {"measurement": "Rate, micromoles TCE oxidized · g cells^-1 · hr^-1", "setting": "[3]; cell density .070 g·l^-1, initial TCE 22 micromolar", "result": "808 micromoles TCE oxidized·g cell"},
      {"measurement": "Rate, micromoles TCE oxidized · g cells^-1 · hr^-1", "setting": "[3]; cell density .173 g·l^-1, initial TCE 23 micromolar", "result": "461 micromoles TCE oxidized·g cell"},
      {"measurement": "Rate, micromoles TCE oxidized · g cells^-1 · hr^-1", "setting": "[3]; cell density .347 g·l^-1, initial TCE 22 micromolar", "result": "465 micromoles TCE oxidized·g cell"},
      {"measurement": "Rate, micromoles TCE oxidized · g cells^-1 · hr^-1", "setting": "[3]; cell density .521 g·l^-1, initial TCE 22 micromolar", "result": "308 micromoles TCE oxidized·g cell"},
      {"measurement": "Rate, micromoles TCE oxidized · g cells^-1 · hr^-1", "setting": "[3]; cell density .695 g·l^-1, initial TCE 22 micromolar", "result": "281 micromoles TCE oxidized·g cell"},
      {"measurement": "Rate of TCE degradation", "setting": "[3]; low cell densities, initial TCE 80 μM, culture cell mass 0.825 g/l (FIG. 1)", "result": "1200 micromoles TCE removed.hr^-1.g cells^-1"}
    ]}
  ]
}
